Source: ChEMBL document CHEMBL2150884, “Inhibition of cell proliferation by quindoline derivative (SYUIQ-05) through its preferential interaction with c-myc promoter G-quadruplex” (J Med Chem, 2011)
Activity calls are given as the source filed them. The calls are words filed in the database; no cut-off is given here.

Experiments:
Nucleic Acid [1] = test: Binding affinity to c-myc Pu27 DNA G-quadruplex in human CA46 cells assessed as down regulation of c-myc protein expression at 0.05 to 0.1 uM after 4 days by Western blot method; assay type: cell-based
Nucleic Acid [2] = test: Binding affinity to c-myc Pu27 DNA G-quadruplex in human Ramos cells assessed as down regulation of TERT protein expression at 0.05 to 0.1 uM after 4 days by Western blot method; assay type: cell-based
Nucleic Acid [3] = test: Binding affinity to c-myc Pu27 DNA G-quadruplex in human CA46 cells assessed as down regulation of TERT transcription at 0.1 uM after 4 days by qRT-PCR; assay type: cell-based
Nucleic Acid [4] = test: Binding affinity to c-myc Pu27 DNA G-quadruplex in human Ramos cells assessed as down regulation of c-myc protein expression at 0.05 to 0.1 uM after 4 days by Western blot method; assay type: cell-based
Nucleic Acid [5] = test: Binding affinity to c-myc Pu27 DNA G-quadruplex in human Ramos cells assessed as down regulation of c-myc transcription at 0.1 uM after 4 days by qRT-PCR; assay type: cell-based
Nucleic Acid [6] = test: Binding affinity to c-myc Pu27 DNA G-quadruplex in human Ramos cells assessed as down regulation of TERT transcription at 0.1 uM after 4 days by qRT-PCR; assay type: cell-based
Nucleic Acid [7] = test: Binding affinity to c-myc Pu27 DNA G-quadruplex in human CA46 cells assessed as down regulation of c-myc transcription at 0.1 uM after 4 days by qRT-PCR; assay type: cell-based
Nucleic Acid [8] = test: Inhibition of NM23-H2 interaction with c-myc DNA G-quadruplex in human HeLa cells assessed as inhibition of c-myc expression at 0.1 uM measured by quantitative RT-PCR analysis; assay type: cell-based
Nucleic Acid [9] = test: Inhibition of NM23-H2 interaction with wild type c-myc DNA G-quadruplex expressed in human HeLa cells assessed as dissociation of NM23-H2 from c-myc promoter at 0.05 to 0.1 uM by Ch-IP assay; assay type: cell-based
Nucleic Acid [10] = test: Inhibition of NM23-H2 interaction with c-myc mutant promoter DNA expressed in human HeLa cells assessed as dissociation of NM23-H2 from c-myc promoter at 0.05 to 0.1 uM by Ch-IP assay; assay type: cell-based
[11] = biological target: Telomerase reverse transcriptase (Homo sapiens) (UniProt O14746); test: […] in human Ramos cells at 0.1 uM for 16 days by TRF length assay; assay type: cell-based
Chain of Telomerase reverse transcriptase (Homo sapiens) (O14746 whole entry): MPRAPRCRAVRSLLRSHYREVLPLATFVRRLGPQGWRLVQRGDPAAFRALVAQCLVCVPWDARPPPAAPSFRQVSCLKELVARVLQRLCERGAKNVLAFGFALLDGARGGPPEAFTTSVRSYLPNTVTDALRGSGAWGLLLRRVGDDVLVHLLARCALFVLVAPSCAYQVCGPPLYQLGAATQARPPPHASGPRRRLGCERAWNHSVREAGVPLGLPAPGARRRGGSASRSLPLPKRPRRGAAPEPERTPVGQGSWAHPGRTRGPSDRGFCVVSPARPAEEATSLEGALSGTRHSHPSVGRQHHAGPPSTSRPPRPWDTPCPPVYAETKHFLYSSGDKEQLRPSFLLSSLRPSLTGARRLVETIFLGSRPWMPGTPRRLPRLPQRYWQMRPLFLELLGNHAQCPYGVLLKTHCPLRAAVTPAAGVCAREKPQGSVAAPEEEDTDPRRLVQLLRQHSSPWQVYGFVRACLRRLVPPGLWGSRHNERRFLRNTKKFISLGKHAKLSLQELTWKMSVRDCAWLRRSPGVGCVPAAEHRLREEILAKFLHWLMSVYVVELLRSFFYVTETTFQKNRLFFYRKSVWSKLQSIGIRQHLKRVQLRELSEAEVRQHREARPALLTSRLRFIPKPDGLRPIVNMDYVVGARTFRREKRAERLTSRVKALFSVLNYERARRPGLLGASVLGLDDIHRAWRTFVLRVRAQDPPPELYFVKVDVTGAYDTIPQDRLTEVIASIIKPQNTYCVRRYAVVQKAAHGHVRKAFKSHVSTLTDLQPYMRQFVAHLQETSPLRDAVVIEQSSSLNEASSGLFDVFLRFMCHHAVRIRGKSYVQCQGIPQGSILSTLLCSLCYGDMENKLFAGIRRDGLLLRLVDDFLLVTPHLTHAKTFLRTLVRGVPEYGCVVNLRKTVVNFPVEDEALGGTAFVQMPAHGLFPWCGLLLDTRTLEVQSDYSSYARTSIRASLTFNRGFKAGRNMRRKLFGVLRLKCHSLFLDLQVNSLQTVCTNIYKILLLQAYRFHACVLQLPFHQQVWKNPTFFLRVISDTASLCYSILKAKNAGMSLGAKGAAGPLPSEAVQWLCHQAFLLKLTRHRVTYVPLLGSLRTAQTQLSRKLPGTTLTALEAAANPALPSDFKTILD

[12] = biological target: Telomerase reverse transcriptase (Homo sapiens) (UniProt O14746); test: […] in human Ramos cells at 0.05 uM for 16 days by TRF length assay; assay type: cell-based
[13] = biological target: Telomerase reverse transcriptase (Homo sapiens) (UniProt O14746); test: […] in human Ramos cells at 0.05 to 0.1 uM for 16 days by TRF length assay; assay type: cell-based
Ramos [14] = test: Induction of senescence in human Ramos cells assessed as flat cells at 0.05 to 0.1 uM after 16 days by beta galactosidase assay; assay type: functional, cell-based
Ramos [15] = test: Induction of senescence in human Ramos cells assessed as gaint cells at 0.05 to 0.1 uM after 16 days by beta galactosidase assay; assay type: functional, cell-based
CA46 [16] = test: Induction of senescence in human CA46 cells assessed as flat cells at 0.05 to 0.1 uM after 16 days by beta galactosidase assay; assay type: functional, cell-based
CA46 [17] = test: Induction of senescence in human CA46 cells assessed as gaint cells at 0.05 to 0.1 uM after 16 days by beta galactosidase assay; assay type: functional, cell-based
[18] = Cytotoxicity in human GLC82 cells by MTT assay; assay type: functional, cell-based
HeLa = test: Cytotoxicity in human HeLa cells by MTT assay; assay type: functional, cell-based
HL-60 = test: Cytotoxicity in human HL60 cells by MTT assay; assay type: functional, cell-based
K562 = test: Cytotoxicity in human K562 cells by MTT assay; assay type: functional, cell-based
[19] = Cytotoxicity in human CNE2 cells by MTT assay; assay type: functional, cell-based; conditions: CNE-2
MGC-803 = test: Cytotoxicity in human MGC803 cells by MTT assay; assay type: functional, cell-based
Bel-7402 = test: Cytotoxicity in human Bel7402 cells by MTT assay; assay type: functional, cell-based
[20] = Cytotoxicity in human SUNE1 cells by MTT assay; assay type: functional, cell-based
Ramos [21] = test: Antiproliferative activity against human Ramos cells assessed as cell viability after 20 days; assay type: functional, cell-based
CA46 [22] = test: Antiproliferative activity against cmyc NHE III1 element-deficient human CA46 cells assessed as cell viability after 20 days; assay type: functional, cell-based
Ramos [23] = test: Antiproliferative activity against human Ramos cells assessed as cell viability at 0.05 uM after 20 days; assay type: functional, cell-based
Nucleic Acid [24] = test: Binding affinity to G-quadruplex HTG21 assessed as change in melting temperature by FRET assay; assay type: nucleic-acid assay
Nucleic Acid [25] = test: Binding affinity to G-quadruplex HTG21 by PCR stop assay; assay type: nucleic-acid assay
Nucleic Acid [26] = test: Binding affinity to G-quadruplex HTG21 by ITC titration assay; assay type: nucleic-acid assay
Nucleic Acid [27] = test: Binding affinity to c-myc Pu27 DNA G-quadruplex assessed as change in melting temperature by FRET assay; assay type: nucleic-acid assay
Nucleic Acid [28] = test: Binding affinity to c-myc Pu27 DNA G-quadruplex by PCR stop assay; assay type: nucleic-acid assay
Nucleic Acid [29] = test: Binding affinity to c-myc Pu27 DNA G-quadruplex by ITC titration assay; assay type: nucleic-acid assay
Nucleic Acid [30] = test: Inhibition of POT1 interaction with wild type c-myc DNA G-quadruplex expressed in human HeLa cells assessed as dissociation of POT1 from c-myc promoter at 0.05 to 0.1 uM by Ch-IP assay; assay type: cell-based

CN(C)CCCNc1c2ccccc2nc2c1[nH]c1ccccc12
Activity (Nucleic Acid [1]): Active
Activity (Nucleic Acid [2]): Active
Activity (Nucleic Acid [3]): inactive
Activity (Nucleic Acid [4]): Active
Activity (Nucleic Acid [5]): Active
Activity (Nucleic Acid [6]): Active
Activity (Nucleic Acid [7]): inactive
inhibition (Nucleic Acid [8]): Active
inhibition (Nucleic Acid [9]): Active
inhibition (Nucleic Acid [10]): inactive
inhibition [11]: Active
inhibition [12]: Active
inhibition [13]: Active
Activity (Ramos [14]): Active
Activity (Ramos [15]): Active
Activity (CA46 [16]): inactive
Activity (CA46 [17]): inactive
IC50 [18]: 240 nM
IC50 (HeLa): 240 nM
IC50 (HL-60): 240 nM
IC50 (K562): 240 nM
IC50 [19]: 240 nM
IC50 (MGC-803): 240 nM
IC50 (Bel-7402): 240 nM
IC50 [20]: 240 nM
Activity (Ramos [21]): Dose-dependent effect
inhibition (CA46 [22]): inactive
Activity (Ramos [23]): Active
ΔTm (Nucleic Acid [24]): 10 °C
IC50 (Nucleic Acid [25]): 2500 nM
Ka (Nucleic Acid [26]): 1.79 10^4 M^-1
ΔTm (Nucleic Acid [27]): 13 °C
IC50 (Nucleic Acid [28]): 1800 nM
Ka (Nucleic Acid [29]): 4.03 10^4 M^-1
inhibition (Nucleic Acid [30]): inactive
